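1) Cells in 96-well plates. 2) Compound, 48 h, 5 concentrations. 3) Linear interpolation between surrounding doses. 4) Unreached endpoint = highest concentration. GI50 = concentration required for 50% inhibition of growth.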 The source made the active and inactive calls. Rule as the data show it: active = GI50 up to about 1.1 µM and inactive = higher.
Tests used:
Experiment in all cases: NCI-60 cell line screen, 48 h
786-0 = system: 786-0
A549 = system: A549
ACHN = system: ACHN
CAKI-1 = system: CAKI-1
CCRF-CEM = system: CCRF-CEM
COLO 205 = system: COLO 205
DU-145 = system: DU-145
EKVX = system: EKVX
HCC 2998 = system: HCC 2998
HCT-116 = system: HCT-116
HCT-15 = system: HCT-15
HL-60 = system: HL-60
HOP-62 = system: HOP-62
HOP-92 = system: HOP-92
HT-29 = system: HT-29
Hs-578T = system: Hs-578T
IGROV-1 = system: IGROV-1
K562 = system: K562
KM12 = system: KM12
LOX IMVI = system: LOX IMVI
M14 = system: M14
MCF7 = system: MCF7
MDA-MB-231 = system: MDA-MB-231
MDA-MB-435 = system: MDA-MB-435
MDA-N = system: MDA-N
MOLT-4 = system: MOLT-4
Malme-3M = system: Malme-3M
NCI-H226 = system: NCI-H226
NCI-H23 = system: NCI-H23
NCI-H460 = system: NCI-H460
NCI-H522 = system: NCI-H522
NCI/ADR-RES = system: NCI/ADR-RES
OVCAR-3 = system: OVCAR-3
OVCAR-5 = system: OVCAR-5
OVCAR-8 = system: OVCAR-8
PC-3 = system: PC-3
RPMI-8226 = system: RPMI-8226
RXF 393 = system: RXF 393
SF-268 = system: SF-268
SF-295 = system: SF-295
SF-539 = system: SF-539
SK-MEL-28 = system: SK-MEL-28
SK-MEL-2 = system: SK-MEL-2
SK-MEL-5 = system: SK-MEL-5
SK-OV-3 = system: SK-OV-3
SN12C = system: SN12C
SNB-19 = system: SNB-19
SNB-75 = system: SNB-75
SR = system: SR
SW-620 = system: SW-620
U-251 = system: U-251
UACC-257 = system: UACC-257
UACC-62 = system: UACC-62
UO-31 = system: UO-31
A498 = system: A498
T47D = system: T47D
TK-10 = system: TK-10
OVCAR-4 = system: OVCAR-4

COc1ccc(/C(=N/O)c2ccccc2C2=Nc3ccccc3C(NCc3ccccc3)O2)cc1C (centres undefined)
GI50 (786-0): 44.3 µM (inactive) | GI50 (A549): 49 µM (inactive) | GI50 (ACHN): 38 µM (inactive) | GI50 (CAKI-1): 56.2 µM (inactive) | GI50 (CCRF-CEM): 19.1 µM (inactive) | GI50 (COLO 205): 17.2 µM (inactive) | GI50 (DU-145): 69.8 µM (inactive) | GI50 (EKVX): 74.5 µM (inactive) | GI50 (HCC 2998): 20.9 µM (inactive) | GI50 (HCT-116): 25.8 µM (inactive) | GI50 (HCT-15): 30.3 µM | GI50 (HL-60): 34.8 µM (inactive) | GI50 (HOP-62): 31.1 µM (inactive) | GI50 (HOP-92): 20.5 µM (inactive) | GI50 (HT-29): 25.1 µM (inactive) | GI50 (Hs-578T): 40.8 µM (inactive) | GI50 (IGROV-1): 40.5 µM (inactive) | GI50 (K562): 16.7 µM (inactive) | GI50 (KM12): 46.2 µM (inactive) | GI50 (LOX IMVI): 15.7 µM (inactive) | GI50 (M14): 39.4 µM (inactive) | GI50 (MCF7): 29.2 µM (inactive) | GI50 (MDA-MB-231): 32.7 µM (inactive) | GI50 (MDA-MB-435): 27.2 µM (inactive) | GI50 (MDA-N): 34.7 µM (inactive) | GI50 (MOLT-4): 29.5 µM (inactive) | GI50 (Malme-3M): 18.6 µM (inactive) | GI50 (NCI-H226): 37 µM (inactive) | GI50 (NCI-H23): > 100 µM (inactive) | GI50 (NCI-H460): 29.9 µM (inactive) | GI50 (NCI-H522): 34 µM (inactive) | GI50 (NCI/ADR-RES): 41.8 µM (inactive) | GI50 (OVCAR-3): 45.7 µM (inactive) | GI50 (OVCAR-5): 33.8 µM (inactive) | GI50 (OVCAR-8): 27.2 µM (inactive) | GI50 (PC-3): 17.3 µM (inactive) | GI50 (RPMI-8226): 26.2 µM (inactive) | GI50 (RXF 393): 47.3 µM (inactive) | GI50 (SF-268): 42.3 µM (inactive) | GI50 (SF-295): 25 µM (inactive) | GI50 (SF-539): 96.2 µM (inactive) | GI50 (SK-MEL-28): 44.1 µM (inactive) | GI50 (SK-MEL-2): 32.7 µM (inactive) | GI50 (SK-MEL-5): 17.5 µM (inactive) | GI50 (SK-OV-3): 21.2 µM (inactive) | GI50 (SN12C): 22.9 µM (inactive) | GI50 (SNB-19): 36.6 µM (inactive) | GI50 (SNB-75): 24.9 µM (inactive) | GI50 (SR): 32.6 µM (inactive) | GI50 (SW-620): 21.8 µM (inactive) | GI50 (U-251): 30.5 µM (inactive) | GI50 (UACC-257): 12.9 µM (inactive) | GI50 (UACC-62): 23.9 µM (inactive) | GI50 (UO-31): 20.6 µM (inactive)

CNC(=S)/C(C#N)=C(\N)N1CCCC1
GI50 (786-0): > 100 µM (inactive) | GI50 (A498): > 100 µM (inactive) | GI50 (A549): > 100 µM (inactive) | GI50 (ACHN): > 100 µM (inactive) | GI50 (CAKI-1): > 100 µM (inactive) | GI50 (CCRF-CEM): > 100 µM (inactive) | GI50 (COLO 205): > 100 µM (inactive) | GI50 (DU-145): > 100 µM (inactive) | GI50 (EKVX): > 100 µM (inactive) | GI50 (HCC 2998): > 100 µM (inactive) | GI50 (HCT-116): > 100 µM (inactive) | GI50 (HCT-15): > 100 µM | GI50 (HL-60): > 100 µM (inactive) | GI50 (HOP-62): > 100 µM (inactive) | GI50 (HT-29): > 100 µM (inactive) | GI50 (Hs-578T): > 100 µM (inactive) | GI50 (IGROV-1): > 100 µM (inactive) | GI50 (K562): > 100 µM (inactive) | GI50 (KM12): > 100 µM (inactive) | GI50 (MDA-MB-231): > 100 µM (inactive) | GI50 (MDA-MB-435): > 100 µM (inactive) | GI50 (MDA-N): > 100 µM (inactive) | GI50 (MOLT-4): > 100 µM (inactive) | GI50 (Malme-3M): > 100 µM (inactive) | GI50 (NCI-H226): > 100 µM (inactive) | GI50 (NCI-H23): > 100 µM (inactive) | GI50 (NCI-H460): > 100 µM (inactive) | GI50 (NCI-H522): > 100 µM (inactive) | GI50 (NCI/ADR-RES): > 100 µM (inactive) | GI50 (OVCAR-3): > 100 µM (inactive) | GI50 (OVCAR-5): > 100 µM (inactive) | GI50 (OVCAR-8): > 100 µM (inactive) | GI50 (PC-3): > 100 µM (inactive) | GI50 (RPMI-8226): > 100 µM (inactive) | GI50 (RXF 393): > 100 µM (inactive) | GI50 (SF-268): > 100 µM (inactive) | GI50 (SF-539): > 100 µM (inactive) | GI50 (SK-MEL-28): > 100 µM (inactive) | GI50 (SK-MEL-2): > 100 µM (inactive) | GI50 (SK-MEL-5): > 100 µM (inactive) | GI50 (SK-OV-3): > 100 µM (inactive) | GI50 (SN12C): > 100 µM (inactive) | GI50 (SNB-19): > 100 µM (inactive) | GI50 (SR): > 100 µM (inactive) | GI50 (SW-620): > 100 µM (inactive) | GI50 (T47D): 57.5 µM (inactive) | GI50 (TK-10): > 100 µM (inactive) | GI50 (U-251): > 100 µM (inactive) | GI50 (UACC-62): > 100 µM (inactive) | GI50 (UO-31): > 100 µM (inactive)

CCOC(=O)c1c(N2CCCC2)ncn(C)c1=S
GI50 (786-0): > 100 µM (inactive) | GI50 (A498): > 100 µM (inactive) | GI50 (A549): > 100 µM (inactive) | GI50 (ACHN): > 100 µM (inactive) | GI50 (CAKI-1): > 100 µM (inactive) | GI50 (CCRF-CEM): > 100 µM (inactive) | GI50 (COLO 205): > 100 µM (inactive) | GI50 (DU-145): > 100 µM (inactive) | GI50 (EKVX): > 100 µM (inactive) | GI50 (HCC 2998): > 100 µM (inactive) | GI50 (HCT-116): > 100 µM (inactive) | GI50 (HCT-15): > 100 µM | GI50 (HL-60): > 100 µM (inactive) | GI50 (HOP-62): > 100 µM (inactive) | GI50 (HOP-92): 93.3 µM (inactive) | GI50 (HT-29): > 100 µM (inactive) | GI50 (Hs-578T): > 100 µM (inactive) | GI50 (IGROV-1): > 100 µM (inactive) | GI50 (K562): > 100 µM (inactive) | GI50 (KM12): > 100 µM (inactive) | GI50 (LOX IMVI): > 100 µM (inactive) | GI50 (M14): > 100 µM (inactive) | GI50 (MCF7): > 100 µM (inactive) | GI50 (MDA-MB-231): > 100 µM (inactive) | GI50 (MDA-MB-435): > 100 µM (inactive) | GI50 (MOLT-4): > 100 µM (inactive) | GI50 (Malme-3M): > 100 µM (inactive) | GI50 (NCI-H226): > 100 µM (inactive) | GI50 (NCI-H23): > 100 µM (inactive) | GI50 (NCI-H460): > 100 µM (inactive) | GI50 (NCI-H522): > 100 µM (inactive) | GI50 (NCI/ADR-RES): > 100 µM (inactive) | GI50 (OVCAR-3): > 100 µM (inactive) | GI50 (OVCAR-4): > 100 µM (inactive) | GI50 (OVCAR-5): > 100 µM (inactive) | GI50 (OVCAR-8): > 100 µM (inactive) | GI50 (PC-3): > 100 µM (inactive) | GI50 (RPMI-8226): > 100 µM (inactive) | GI50 (RXF 393): > 100 µM (inactive) | GI50 (SF-268): > 100 µM (inactive) | GI50 (SF-295): > 100 µM (inactive) | GI50 (SF-539): > 100 µM (inactive) | GI50 (SK-MEL-28): > 100 µM (inactive) | GI50 (SK-MEL-2): > 100 µM (inactive) | GI50 (SK-MEL-5): > 100 µM (inactive) | GI50 (SN12C): > 100 µM (inactive) | GI50 (SNB-19): > 100 µM (inactive) | GI50 (SR): > 100 µM (inactive) | GI50 (SW-620): > 100 µM (inactive) | GI50 (T47D): > 100 µM (inactive) | GI50 (TK-10): > 100 µM (inactive) | GI50 (U-251): > 100 µM (inactive) | GI50 (UACC-257): > 100 µM (inactive) | GI50 (UACC-62): > 100 µM (inactive) | GI50 (UO-31): 41.6 µM (inactive)
